Source: patent US20200223826A1, “Glucose-6-Phosphate Dehydrogenase (G6PD)-Modulating Agents And Methods Of Treating G6PD Deficiency” (The Board of Trustees of the Leland Stanford Junior …, priority 2017, published 2020)

Tests used:
[1] = molecular target: glyceraldehyde 3-phosphate dehydrogenase (GAPDH) (Homo sapiens, UniProt P04406); test: Selectivity: dimerization or activity of other NAD/NADP+-dependent enzymes; type: biochemical
[2] = molecular target: aldehyde dehydrogenase 3A1 (ALDH3A1) (Homo sapiens, UniProt P30838); test: as above; type: biochemical
[3] = tested on: SH-SY5Y cells expressing the Canton variant; test: Viability of SH-SY5Y cells expressing Canton variant; type: cell-based, human
Protocol: Prior to the cellular-based assays using SH-SH5Y cells, duration of overexpression of WT G6PD and Canton variant was examined by transfecting the cells seeded in a 12-well plate. The genes encoding human WT G6PD and Canton variant were first PCR-amplified, which was then inserted into pcDNA 3.1/myc-His C (ThermoFisher Scientific) using HindIII and XhoI. 0.5 μg of cDNA and 1.5 μg of lipofectamine (Invitrogen) were diluted in 50 μL of Opti-MEM medium respectively and incubated for 5 minutes. The diluted DNA was combined with diluted lipofectamine, which was followed by incubation for 20 minutes prior to the addition to cells.
Cell viability was measured using a Cell-Counting Kit-8 (CCK-8, Dojindo), utilizing WST-8 [2-(2-methoxy-4-nitrophenyl)-3-(4-nitrophenyl)-5-(2,4-disulfophenyl)-2H-tetrazolium monosodium salt, according to the manufacturer's instructions. Cells were subjected to serum starvation for 48 hours before measurement. Cells in 100 μL of medium per well were treated with 10 μL of CCK-8 solution and incubated for 2 hours at 37° C. The absorbance was read at 450 nm. Viability of lymphocytes was measured by staining with a 0.4% solution of trypan blue in buffered isotonic salt solution (pH 7.2). The viability was calculated as the number of viable cells (non-stained by the dye) divided by the total number of cells within the grids on the hemacytometer. […]

[4] = tested on: zebrafish embryos; test: ROS levels in chloroquine-treated zebrafish embryos; type: in vivo; details: chloroquine 50 μg/ml
Protocol: (§1) Embryos were dechorinated with pronase at 24 hours post fertilization (hpf) and treated with 50 μg/ml of chloroquine and/or AG1 by directly adding the compounds to the well. For ROS measurements, embryos were incubated with compounds for 2 hours, and then the ROS detecting reagent (CM-H2DCFDA) was added at a final concentration of 500 ng/ml to the well for a total treatment time of 5 hours. One embryo was placed to each well of a black, opaque 96-well plate. The florescence was analyzed with excitation/emission at 485/525 nm. After ROS assays, embryos at about 32 hpf were pooled and lysed in buffer containing 50 mM Tris (pH 7.4), 150 mM NaCl, 1 mM EDTA, 0.1% NP-40, and protease inhibitor cocktail, which was followed by three cycles of freeze and thawing in liquid nitrogen. The lysate was centrifuged at 14,000 rpm at 4° C. for 15 minutes. Total protein concentration in the supernatants (total lysate) was determined by Bradford method. 50 μg of total lysate was loaded onto 10% SDS-PAGE gels and the protein level was examined by Western blot using anti-G6PD antibody (Abcam (G6PD: AB87230)). 10 μg of total lysate was used for enzymatic assay. 50 μg of the lysate was used to measure NADPH levels using a NADPH quantification kit (Biovision), according to the manufacturer's instructions.

[5] = tested on: zebrafish embryos; test: Pericardial edema in zebrafish embryos; type: in vivo
Protocol: as §1
Live embryos were anesthetized and mounted in 3% methylcellulose. Embryos were imaged with a Leica M205FA microscope equipped with a 1.0× Plan Apochromatic objective and a SPOT Flex camera or a Leica DM4500B compound microscope equipped with a QImaging Retiga-SRV camera. For hemoglobin staining, fixed embryos were stained with o-dianisidine as previously reported (10), cleared, mounted in 100% glycerol, and imaged with a Leica M205FA microscope equipped with a 1.0× Plan Apochromatic objective and a SPOT Flex camera. All images were captured using SPOT or MetaMorph imaging software (Diagnostic Imaging Inc.) and processed in Photoshop (Adobe). Adjustments were limited to brightness levels and cropping. Analysis was carried out by an observer blinded to the experimental conditions.

[6] = molecular target: T1, G6PD in human erythrocytes (Homo sapiens, UniProt P11413); test: G6PD activity in erythrocytes under oxidative stressors; type: cell-based; details: drug-induced oxidative stress
T1 construct: host or cells: human erythrocytes
Protocol: (§2) De-identified blood samples were obtained from the Stanford Blood Center. Erythrocytes were collected by filtering the samples through a cellulose slurry to remove platelets and leukocytes and then washed with saline. G6PD activity was measured (Beutler E. Red cell metabolism: A manual of biochemical methods (3rd edition). Grune & Stratton (1984)). […] A 5% erythrocyte suspension was pre-incubated with 1-5 μM AG1 at 4° C. overnight, which was followed by treatment with (or without) either 1 mM chloroquine (CQ) or 1 mM diamide for 3-4 hours at 37° C. (for hemolysis assay with chloroquine, the mixture was incubated under light). Then centrifugation at 1,000 rpm for 5 minutes was followed. Hemoglobin release in the supernatant was monitored by measuring absorbance at 540 nm. […] After wash, the samples were lysed with 0.1% Triton X-100 (final concentration), and the florescence was analyzed with excitation/emission at 485/525 nm. GSH measurement was determined using a Cayman glutathione assay kit (Cayman Chemicals, 703002). […] The absorbance was read at 412 nm. For storage assay, a 5% erythrocyte suspension was stored at 4° C. with and without 1 μM AG1, and hemolysis and G6PD activity were monitored every week for 28 days to examine whether AG1 improves preservation of erythrocytes over time. Protein leakage was also examined by measuring the absorbance of the supernatant of samples at 280 nm. […]

[7] = tested on: human erythrocytes; test: Erythrocyte refrigerated storage assay, hemolysis; type: cell-based; details: 672 h, read-out: reduction of hemolysis
Protocol: as §2

Sequence of aldehyde dehydrogenase 3A1 (ALDH3A1) (P30838 whole entry, species assumed): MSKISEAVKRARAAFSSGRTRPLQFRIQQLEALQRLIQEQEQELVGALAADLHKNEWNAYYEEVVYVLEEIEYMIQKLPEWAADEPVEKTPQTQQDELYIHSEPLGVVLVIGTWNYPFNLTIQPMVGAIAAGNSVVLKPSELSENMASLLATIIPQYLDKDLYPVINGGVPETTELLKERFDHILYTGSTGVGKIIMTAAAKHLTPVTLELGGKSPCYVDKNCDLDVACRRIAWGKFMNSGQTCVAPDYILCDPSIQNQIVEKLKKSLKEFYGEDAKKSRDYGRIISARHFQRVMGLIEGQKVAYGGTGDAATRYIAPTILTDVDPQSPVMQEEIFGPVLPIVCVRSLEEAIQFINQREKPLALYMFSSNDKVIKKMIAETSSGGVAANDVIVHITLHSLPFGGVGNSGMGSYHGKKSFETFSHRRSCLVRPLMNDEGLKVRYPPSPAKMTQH
T1 sequence (P11413 2-515 limits assumed): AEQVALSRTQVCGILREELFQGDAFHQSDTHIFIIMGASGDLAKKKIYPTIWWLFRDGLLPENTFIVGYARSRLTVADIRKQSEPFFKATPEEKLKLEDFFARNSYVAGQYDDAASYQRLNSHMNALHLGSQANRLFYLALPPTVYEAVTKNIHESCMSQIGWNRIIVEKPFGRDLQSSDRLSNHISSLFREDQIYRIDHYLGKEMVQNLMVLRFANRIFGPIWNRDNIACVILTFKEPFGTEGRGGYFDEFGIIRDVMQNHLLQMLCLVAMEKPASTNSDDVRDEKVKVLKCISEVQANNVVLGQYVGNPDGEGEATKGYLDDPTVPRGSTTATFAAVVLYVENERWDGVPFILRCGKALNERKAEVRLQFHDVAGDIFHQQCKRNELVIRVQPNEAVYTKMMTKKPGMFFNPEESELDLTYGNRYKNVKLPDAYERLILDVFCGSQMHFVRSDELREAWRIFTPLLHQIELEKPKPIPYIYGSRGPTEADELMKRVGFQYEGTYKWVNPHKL
Sequence of glyceraldehyde 3-phosphate dehydrogenase (GAPDH) (P04406 whole entry, species assumed): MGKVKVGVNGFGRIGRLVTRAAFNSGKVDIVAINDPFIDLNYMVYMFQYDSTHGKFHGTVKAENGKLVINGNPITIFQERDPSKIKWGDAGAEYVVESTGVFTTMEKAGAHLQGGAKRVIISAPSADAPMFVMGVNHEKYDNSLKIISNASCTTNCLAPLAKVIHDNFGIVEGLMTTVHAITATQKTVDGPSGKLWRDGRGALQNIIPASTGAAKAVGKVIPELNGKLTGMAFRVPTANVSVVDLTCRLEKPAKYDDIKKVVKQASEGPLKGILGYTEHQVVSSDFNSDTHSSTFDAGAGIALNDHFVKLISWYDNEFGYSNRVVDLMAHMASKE

SCCNCCc1c[nH]c2ccccc12 [AG1, 2-[2-(1H-indol-3-yl)ethylamino]ethanethiol]
effect on dimerization or activity [1]: no effect
effect on dimerization or activity [2]: no effect
viability [3]: mild increase
ROS levels [4]: reduced
embryos exhibiting pericardial edema ([5]; chloroquine 50 μg/ml): less embryos exhibiting pericardial edema
pericardial edema due to mesoderm defects ([5]; tbx16 mutants): not corrected
G6PD activity [6]: increased
reduction of hemolysis at 1 µM [7]: 12%
